Legend:
Format in all cases: biochemical
[1] = molecular target: T1, recombinant alpha-glucosidase II (murine full-length glucosidase II, alpha and beta subunits, Glu 2) (Mus musculus, UniProt Q8BHN3); experiment: Alpha-glucosidase II assay (4-methylumbelliferyl-alpha-D-pyranoside substrate, fluorescence); settings: Glucosidase 2; read-out: Glu2 IC50
T1 construct: made in house; host or cells: HEK-293T cells transduced with BacMam viruses (75% alpha, 25% beta); protein harvested from culture supernatant

[2] = molecular target: recombinant human GAA (acid alpha-glucosidase) (Homo sapiens, UniProt P10253); experiment: Acid alpha-glucosidase (GAA) assay (4-methylumbelliferyl-alpha-D-pyranoside substrate, fluorescence)
Outline: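 IC50 from 4-PL curve fit of percent inhibition, based on fluorescence (365/440 nm) of released methylumbelliferone relative to uninhibited enzyme. Compound dilutions and human GAA incubated 60 min, 37 °C, before 20 min substrate reaction at 37 °C, quenched at pH 10.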

[3] = molecular target: T2, recombinant human GBA (beta-glucocerebrosidase) (Homo sapiens, UniProt P04062); experiment: Beta-glucocerebrosidase (GBA, glucosylceramidase) assay (4-methylumbelliferyl-beta-D-pyranoside substrate, fluorescence)
T2 sequence (P04062 40-536): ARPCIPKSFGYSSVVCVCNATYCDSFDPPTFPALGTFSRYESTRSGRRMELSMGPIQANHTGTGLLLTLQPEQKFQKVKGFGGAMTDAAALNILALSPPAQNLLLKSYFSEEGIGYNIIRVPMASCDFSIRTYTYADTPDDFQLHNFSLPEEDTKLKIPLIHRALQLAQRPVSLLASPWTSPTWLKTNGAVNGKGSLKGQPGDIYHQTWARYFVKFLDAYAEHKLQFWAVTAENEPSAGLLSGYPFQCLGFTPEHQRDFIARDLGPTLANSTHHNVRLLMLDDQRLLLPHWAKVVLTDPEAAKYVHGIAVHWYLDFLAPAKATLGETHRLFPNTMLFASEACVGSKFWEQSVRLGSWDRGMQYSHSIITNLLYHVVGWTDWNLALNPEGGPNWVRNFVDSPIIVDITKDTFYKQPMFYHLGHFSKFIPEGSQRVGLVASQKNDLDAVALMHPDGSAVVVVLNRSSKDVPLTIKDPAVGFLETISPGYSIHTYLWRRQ
Outline: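 IC50 by four-parameter fit of percent inhibition, with product fluorescence (365/440 nm) read after a glycine/NaOH pH 10 stop. Compound and commercial recombinant human enzyme were incubated 60 min at 37 °C before a further 60 min at 37 °C with 4-methylumbelliferyl-beta-D-pyranoside substrate.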

[4] = molecular target: rat maltase (partially purified alpha-glucosidase from intestinal rat powder); experiment: Intestinal alpha-glucosidase assay, maltose substrate (Glucose GO Kit)
Outline: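 Enzyme from intestinal rat powder, partially purified, is exposed to compound for 60 min at 37 °C. Disaccharide substrate (maltose or sucrose respectively) then reacts 30 min at 37 °C. Heat-stopped samples are assayed for glucose, and percent inhibition versus concentration gives IC50 via 4-PL.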

T1 sequence (O08795 15-521): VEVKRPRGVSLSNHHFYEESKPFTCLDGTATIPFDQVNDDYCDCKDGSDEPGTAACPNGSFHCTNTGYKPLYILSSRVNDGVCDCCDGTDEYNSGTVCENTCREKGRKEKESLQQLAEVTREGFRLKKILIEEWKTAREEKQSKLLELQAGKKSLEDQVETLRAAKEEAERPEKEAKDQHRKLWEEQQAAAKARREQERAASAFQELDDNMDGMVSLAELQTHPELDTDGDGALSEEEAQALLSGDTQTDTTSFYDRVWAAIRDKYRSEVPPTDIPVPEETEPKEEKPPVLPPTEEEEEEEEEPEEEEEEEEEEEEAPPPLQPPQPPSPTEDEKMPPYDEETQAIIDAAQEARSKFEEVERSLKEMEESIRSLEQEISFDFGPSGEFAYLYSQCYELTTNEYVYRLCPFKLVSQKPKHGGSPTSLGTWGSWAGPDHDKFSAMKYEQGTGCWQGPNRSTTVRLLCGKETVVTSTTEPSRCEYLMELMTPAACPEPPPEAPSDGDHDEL
T1 sequence (Q8BHN3 33-944): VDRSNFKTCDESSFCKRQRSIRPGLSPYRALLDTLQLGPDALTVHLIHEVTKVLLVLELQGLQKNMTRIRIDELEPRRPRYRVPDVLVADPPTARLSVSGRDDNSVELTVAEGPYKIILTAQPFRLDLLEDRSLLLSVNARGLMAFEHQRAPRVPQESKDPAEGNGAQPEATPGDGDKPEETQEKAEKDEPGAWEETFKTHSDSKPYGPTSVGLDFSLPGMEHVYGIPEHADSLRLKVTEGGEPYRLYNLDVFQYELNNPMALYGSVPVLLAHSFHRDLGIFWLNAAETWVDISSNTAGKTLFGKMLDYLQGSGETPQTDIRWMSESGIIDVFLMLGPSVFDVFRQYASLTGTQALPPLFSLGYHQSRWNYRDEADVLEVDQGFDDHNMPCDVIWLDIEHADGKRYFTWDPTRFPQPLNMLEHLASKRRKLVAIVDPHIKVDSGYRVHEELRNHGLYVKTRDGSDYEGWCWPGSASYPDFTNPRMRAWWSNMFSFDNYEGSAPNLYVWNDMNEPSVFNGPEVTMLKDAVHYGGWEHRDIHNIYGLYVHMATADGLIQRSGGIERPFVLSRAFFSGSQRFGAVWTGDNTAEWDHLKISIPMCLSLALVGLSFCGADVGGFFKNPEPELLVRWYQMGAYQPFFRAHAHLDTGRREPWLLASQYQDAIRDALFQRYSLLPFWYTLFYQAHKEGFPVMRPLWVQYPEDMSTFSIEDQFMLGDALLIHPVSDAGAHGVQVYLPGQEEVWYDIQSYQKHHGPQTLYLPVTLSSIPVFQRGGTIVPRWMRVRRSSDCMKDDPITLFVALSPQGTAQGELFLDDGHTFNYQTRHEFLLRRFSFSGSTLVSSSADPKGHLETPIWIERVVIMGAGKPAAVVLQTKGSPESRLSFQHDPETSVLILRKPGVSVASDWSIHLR

SMILES	IC50 [1]	IC50 [2]	IC50 [3]	IC50 [4]
O=[N+]([O-])c1cc(N2CC3CC2CO3)ccc1NCc1ccc(CN2C[C@@H](O)[C@H](O)[C@@H](O)[C@@H]2CO)cc1 (stereo in doubt) [Compound 1015, (2S,3S,4S,5R)-2-(hydroxymethyl)-1-[(4-{[(2-nitro-4-{2-oxa-5-azabicyclo[2.2.1]heptan-5-yl}phenyl)amino]methyl}phenyl)methyl]piperidine-3,4,5-triol]	2 nM	129 nM	> 100000 nM	8 nM
CN(Cc1cccc(CN2C[C@H](O)[C@@H](O)[C@H](O)[C@H]2CO)c1)c1ccc(CN2CCCO2)cc1[N+](=O)[O-] [Compound 1020]	–	1160 nM	76300 nM	44 nM
Cc1cc(Br)cc(NCc2cccc(CN3C[C@H](O)[C@@H](O)[C@H](O)[C@H]3CO)c2)c1 [Compound 1021, (2R,3R,4R,5S)-1-[(3-{[(3-bromo-5-methylphenyl)amino]methyl}phenyl)methyl]-2-(hydroxymethyl)piperidine-3,4,5-triol]	35000 nM	2090 nM	25800 nM	8 nM
N#Cc1cc(Br)cc(NCc2cccc(CN3C[C@H](O)[C@@H](O)[C@H](O)[C@H]3CO)c2)c1 [Compound 1023, 3-bromo-5-{[(3-{[(2R,3R,4R,5S)-3,4,5-trihydroxy-2-(hydroxymethyl)piperidin-1-yl]methyl}phenyl)methyl]amino}benzonitrile]	42600 nM	1440 nM	91100 nM	30 nM
Cc1cc(Br)cc(NCc2ccc(CN3C[C@H](O)[C@@H](O)[C@H](O)[C@H]3CO)cc2)c1 [Compound 1024, (2R,3R,4R,5S)-1-[(4-{[(3-bromo-5-methylphenyl)amino]methyl}phenyl)methyl]-2-(hydroxymethyl)piperidine-3,4,5-triol]	–	221 nM	21100 nM	2 nM
CS(=O)(=O)c1cc(Br)cc(NCc2ccc(CN3C[C@H](O)[C@@H](O)[C@H](O)[C@H]3CO)cc2)c1 [Compound 1025, (2R,3R,4R,5S)-1-[(4-{[(3-bromo-5-methanesulfonylphenyl)amino]methyl}phenyl)methyl]-2-(hydroxymethyl)piperidine-3,4,5-triol]	229 nM	135 nM	38900 nM	4 nM
N#Cc1cc(Br)cc(NCc2ccc(CN3C[C@H](O)[C@@H](O)[C@H](O)[C@H]3CO)cc2)c1 [Compound 1026, 3-bromo-5-{[(4-{[(2R,3R,4R,5S)-3,4,5-trihydroxy-2-(hydroxymethyl)piperidin-1-yl]methyl}phenyl)methyl]amino}benzonitrile]	< 1 nM	64 nM	37900 nM	< 1 nM
OC[C@@H]1[C@@H](O)[C@H](O)[C@@H](O)CN1Cc1cccc(CNc2ccc(Br)cc2)c1 [Compound 1027, (2R,3R,4R,5S)-1-[(3-{[(4-bromophenyl)amino]methyl}phenyl)methyl]-2-(hydroxymethyl)piperidine-3,4,5-triol]	23600 nM	2830 nM	75700 nM	81 nM
OC[C@@H]1[C@@H](O)[C@H](O)[C@@H](O)CN1Cc1ccc(CNc2ccc(Br)cc2)cc1 [Compound 1028, (2R,3R,4R,5S)-1-[(4-{[(4-bromophenyl)amino]methyl}phenyl)methyl]-2-(hydroxymethyl)piperidine-3,4,5-triol]	827 nM	666 nM	12900 nM	11 nM
O=[N+]([O-])c1cc(Br)ccc1NCc1cccc(CN2C[C@H](O)[C@@H](O)[C@H](O)[C@H]2CO)c1 [Compound 1029, (2R,3R,4R,5S)-1-[(3-{[(4-bromo-2-nitrophenyl)-amino]methyl}phenyl)methyl]-2-(hydroxymethyl)piperidine-3,4,5-triol]	20400 nM	1330 nM	52300 nM	10 nM
O=[N+]([O-])c1cc(Br)ccc1NCc1ccc(CN2C[C@H](O)[C@@H](O)[C@H](O)[C@H]2CO)cc1 [Compound 1030, (2R,3R,4R,5S)-1-[(4-{[(4-bromo-2-nitrophenyl)amino]methyl}phenyl)methyl]-2-(hydroxymethyl)piperidine-3,4,5-triol]	< 1 nM	135 nM	32300 nM	< 1 nM
Cc1cc(NCc2cccc(CN3C[C@H](O)[C@@H](O)[C@H](O)[C@H]3CO)c2)cc(N2CCOCC2)c1 [Compound 1031, (2R,3R,4R,5S)-2-(hydroxymethyl)-1-{[3-({[3-methyl-5-(morpholin-4-yl)phenyl]amino}methyl)phenyl]methyl}piperidine-3,4,5-triol]	10700 nM	5220 nM	> 100000 nM	174 nM
Cc1cc(NCc2cccc(CN3C[C@H](O)[C@@H](O)[C@H](O)[C@H]3CO)c2)cc(C2=COCCO2)c1 [Compound 1032, (2R,3R,4R,5S)-1-{[3-({[3-(5,6-dihydro-1,4-dioxin-2-yl)-5-methylphenyl]amino}methyl)phenyl]methyl}-2-(hydroxymethyl)piperidine-3,4,5-triol]	47700 nM	4170 nM	> 100000 nM	73 nM
Cc1cc(NCc2cccc(CN3C[C@H](O)[C@@H](O)[C@H](O)[C@H]3CO)c2)cc(-c2ccc[nH]2)c1 [Compound 1033, (2R,3R,4R,5S)-2-(hydroxymethyl)-1-{[3-({[3-methyl-5-(1H-pyrrol-2-yl)phenyl]amino}methyl)phenyl]methyl}piperidine-3,4,5-triol]	> 100000 nM	5370 nM	> 100000 nM	37 nM
Cc1cc(NCc2cccc(CN3C[C@H](O)[C@@H](O)[C@H](O)[C@H]3CO)c2)cc(-c2cccnn2)c1 [Compound 1034, (2R,3R,4R,5S)-2-(hydroxymethyl)-1-{[3-({[3-methyl-5-(pyridazin-3-yl)phenyl]amino}methyl)phenyl]methyl}piperidine-3,4,5-triol]	10000 nM	2710 nM	91900 nM	33 nM
CS(=O)(=O)c1cc(NCc2cccc(CN3C[C@H](O)[C@@H](O)[C@H](O)[C@H]3CO)c2)cc(N2CCOCC2)c1 [Compound 1036, (2R,3R,4R,5S)-2-(hydroxymethyl)-1-{[3-({[3-methanesulfonyl-5-(morpholin-4-yl)phenyl]amino}methyl)phenyl]methyl}piperidine-3,4,5-triol]	49500 nM	2760 nM	> 100000 nM	77 nM
N#Cc1cc(NCc2cccc(CN3C[C@H](O)[C@@H](O)[C@H](O)[C@H]3CO)c2)cc(N2CCOCC2)c1 [Compound 1042, 3-(morpholin-4-yl)-5-{[(3-{[(2R,3R,4R,5S)-3,4,5-trihydroxy-2-(hydroxymethyl)piperidin-1-yl]methyl}phenyl)methyl]amino}benzonitrile]	8680 nM	1830 nM	> 100000 nM	29 nM
OC[C@@H]1[C@@H](O)[C@H](O)[C@@H](O)CN1CCCCCCNc1cc(Cl)cc(-c2ncco2)c1 [Compound 1211, (2R,3R,4R,5S)-1-(6-{[3-chloro-5-(1,3-oxazol-2-yl)phenyl]amino}hexyl)-2-(hydroxymethyl)piperidine-3,4,5-triol]	2 nM	16 nM	326 nM	1 nM
OC[C@@H]1[C@@H](O)[C@H](O)[C@@H](O)CN1CCCCCCNc1cc(Cl)cc(-c2ncccn2)c1 [Compound 1212, (2R,3R,4R,5S)-1-(6-{[3-chloro-5-(pyrimidin-2-yl)phenyl]amino}hexyl)-2-(hydroxymethyl)piperidine-3,4,5-triol]	5 nM	47 nM	386 nM	2 nM
COc1cc(NCCCCCCN2C[C@H](O)[C@@H](O)[C@H](O)[C@H]2CO)cc(-c2ncco2)c1 [Compound 1216, (2R,3R,4R,5S)-2-(hydroxymethyl)-1-(6-{[3-methoxy-5-(1,3-oxazol-2-yl)phenyl]amino}hexyl)piperidine-3,4,5-triol]	2 nM	37 nM	2140 nM	8 nM
COc1cc(NCCCCCCN2C[C@H](O)[C@@H](O)[C@H](O)[C@H]2CO)cc(-c2ncccn2)c1 [Compound 1217, (2R,3R,4R,5S)-2-(hydroxymethyl)-1-(6-{[3-methoxy-5-(pyrimidin-2-yl)phenyl]amino}hexyl)piperidine-3,4,5-triol]	11 nM	10 nM	981 nM	11 nM
